Test results published in ChEMBL document CHEMBL4118093, “Identification of a Hit Series of Antileishmanial Compounds through the Use of Mixture-Based Libraries” (ACS Med Chem Lett, 2017).

Legend:
[1] = test system: Leishmania donovani; test: Antileishmanial activity against Leishmania donovani axenic amastigotes infected in mouse J774 cells measured after 72 hrs by Draq5 staining based high content screening assay; format: functional, organism-based; details: J774, 72 h
[2] = test system: Leishmania donovani; test: Antileishmanial activity against Leishmania donovani axenic amastigotes at 5 uM after 72 hrs by Celltiter reagent based assay relative to control; format: functional
[3] = test system: Leishmania donovani; test: Antileishmanial activity against Leishmania donovani axenic amastigotes at 2.5 uM after 72 hrs by Celltiter reagent based assay relative to control; format: functional
[4] = Selectivity index, ratio of IC50 for mouse J774 cells to IC50 for Leishmania donovani axenic amastigotes infected in mouse J774 cells; format: toxicity, cell-based; details: read-out: Ratio IC50
[5] = test system: J774; test: Cytotoxicity against mouse J774 cells

Row | SMILES | IC50 [1] [µM] | inhibition at 5 µM [2] [%] | inhibition at 2.5 µM [3] [%] | selectivity ratio [4] | IC50 [5] [µM]
1 | CCCC[C@H]1CN(CCCC[C@H]2CNC(=N)N2CCc2cccc(C(F)(F)F)c2)C(=N)N1CCCCC1CCCCC1 | 5 | 43 | 0 | 10 | 50
2 | CCCC[C@H]1CN(CCCC[C@H]2CNC(=N)N2CCc2cccc(C(F)(F)F)c2)C(=N)N1CCc1ccc(-c2ccccc2)cc1 | 0.3 | 100 | 47 | 88 to 89 | 28
3 | CCCCCCCN1C(=N)N(CCCC[C@H]2CNC(=N)N2CCc2cccc(C(F)(F)F)c2)C[C@@H]1CCCC | 0.6 | 26 | 9 | 81 | 48
4 | CCCCCCCN1C(=N)N(CCCC[C@H]2CNC(=N)N2CCC23CC4CC(CC(C4)C2)C3)C[C@@H]1CC1CCCCC1 | 2.5 | 85 | 14 | 11 | 26
5 | N=C1NC[C@H](CCCCN2C[C@H](CC3CCCCC3)N(CCCCC3CCCCC3)C2=N)N1CCC12CC3CC(CC(C3)C1)C2 | > 5 | 28 | 0 | < 5 | 23
6 | N=C1NC[C@H](CCCCN2C[C@H](CC3CCCCC3)N(CCc3ccc(-c4ccccc4)cc3)C2=N)N1CCC12CC3CC(CC(C3)C1)C2 | 0.9 | 57 | 14 | 20 | 17
7 | CC1CCC(CN2C(=N)NC[C@@H]2CCCCN2CCNC2=N)CC1 (some centres not stated) | 4.4 |  |  | 1 | 6
8 | N=C1NCCN1CCc1ccccc1 | 10 |  |  | 1 | 8
9 | N=C1NC[C@H](CCCCN2CCN(CCc3ccc(-c4ccccc4)cc3)C2=N)N1 | 4.9 |  |  | 10 | 50
10 | CCCC[C@H]1CN(CCCC[C@H]2CNC(=N)N2CCC23CC4CC(CC(C4)C2)C3)C(=N)N1 | 4.2 |  |  | 3 | 13
11 | CCCCCCCN1CCN(CCCC[C@H]2CNC(=N)N2CCc2cccc(C(F)(F)F)c2)C1=N | 2.5 |  |  | 4 | 9
12 | N=C1NC[C@H](CCCCN2CCNC2=N)N1 | 4.8 |  |  | 10 | 50
13 | N=C1NC[C@H](CCCCN2C[C@@H](Cc3ccc4ccccc4c3)N(CCc3ccc(-c4ccccc4)cc3)C2=N)N1CCC12CC3CC(CC(C3)C1)C2 | 1.7 | 0 | 0 | 25 | 41
14 | Cc1ccccc1CCN1C(=N)NC[C@@H]1CCCCN1CCNC1=N | 3.5 |  |  | 14 | 50
15 | CCCC[C@H]1CNC(=N)N1CC1CCC(C)CC1 (some centres not stated) | 0.6 |  |  | 10 | 6
16 | N=C1NCCN1CCCC[C@H]1CNC(=N)N1CCc1cccc(C(F)(F)F)c1 | 0.9 |  |  | 9 | 7
17 | CC1CCC(CCN2C(=N)NC[C@@H]2CCCCN2CCNC2=N)CC1 (some centres not stated) | 0.6 |  |  | 28 | 17
18 | N=C1NCCN1CCCC[C@H]1CNC(=N)N1CCCCC1CCCCC1 | 5.2 |  |  | 5 | 24
19 | N=C1NCCN1CCCC[C@H]1CNC(=N)N1CCC12CC3CC(CC(C3)C1)C2 | 3.5 |  |  | 14 | 50
20 | N=C1NC[C@H](CCCCN2CCN(CCc3ccccc3)C2=N)N1 | 0.6 |  |  | 36 | 20
21 | CCCC[C@H]1CNC(=N)N1CCC12CC3CC(CC(C3)C1)C2 | 4.7 |  |  | 3 | 12
22 | CCCCCCCN1CCN(CCCC[C@H]2CNC(=N)N2)C1=N | 10 |  |  | 1 | 13

Row | SMILES | IC50 [1] [µM] | inhibition at 5 µM [2] [%] | inhibition at 2.5 µM [3] [%] | selectivity ratio [4] | IC50 [5] [µM]
23 | Cc1ccc(CCN2C(=N)NC[C@@H]2CCCCN2CCNC2=N)cc1 | 3.9 |  |  | 6 | 22
24 | CCCCCCCN1C(=N)N(CCCC[C@H]2CNC(=N)N2)C[C@@H]1CCCC | 1.3 |  |  | 17 | 22
25 | N=C1N(CCCC[C@H]2CNC(=N)N2CCC23CC4CC(CC(C4)C2)C3)CCN1CCc1ccc(-c2ccccc2)cc1 | 0.7 |  |  | 33 | 23
26 | CCCCCCCN1C(=N)N(CCCC[C@H]2CNC(=N)N2CCc2cccc(C(F)(F)F)c2)C[C@H]1Cc1ccc2ccccc2c1 | 3.5 | 100 | 37 | 14 | 50
27 | CCCCCCCN1CCN(CCCC[C@H]2CNC(=N)N2CCCCC2CCCCC2)C1=N | 3.5 |  |  | 2 | 6
28 | CCCC[C@H]1CNC(=N)N1CCc1ccc(-c2ccccc2)cc1 | 2.4 |  |  | 6 | 15
29 | CCCCCCCN1C(=N)N(CCCC[C@H]2CNC(=N)N2)C[C@@H]1CC1CCCCC1 | 2.5 |  |  | 20 | 50
30 | N=C1NCCN1CCc1ccc(-c2ccccc2)cc1 | 4.8 |  |  | 3 | 15
31 | CCCC[C@H]1CN(CCCC[C@H]2CNC(=N)N2)C(=N)N1 | 5 to 10 |  |  | 5 to 10 | 50
32 | CC1CCCC(CCN2C(=N)NC[C@@H]2CCCCN2CCNC2=N)C1 (some centres not stated) | 1.8 |  |  | 10 | 19
33 | Cc1cccc(CCN2C(=N)NC[C@@H]2CCCCN2CCNC2=N)c1 | 0.9 |  |  | 56 | 50
34 | CCCC[C@H]1CN(CCCC[C@@H]2CNC(=N)N2CCC23CC4CC(CC(C4)C2)C3)C(=N)N1CCc1ccc(-c2ccccc2)cc1 | 3.8 |  |  | 6 | 21
35 | CCCC[C@H]1CN(CCCC[C@H]2CNC(=N)N2)C(=N)N1CCc1ccc(-c2ccccc2)cc1 | 1.2 |  |  | 43 | 50
36 | CCCCCCCN1C(=N)N(CCCC[C@@H]2CNC(=N)N2CCCCC2CCCCC2)C[C@@H]1CC1CCCCC1 | 8.9 |  |  | 6 | 50
37 | CCCC[C@H]1CN(CCCC[C@@H]2CNC(=N)N2CCc2cccc(C(F)(F)F)c2)C(=N)N1CCCCC1CCCCC1 | 0.6 |  |  | 79 | 50
38 | N=C1N[C@@H](CC2CCCCC2)CN1CCCC[C@H]1CNC(=N)N1CCCCC1CCCCC1 | 1.8 |  |  | 16 | 27
39 | CCCC[C@H]1CNC(=N)N1CCc1ccccc1 | 1.1 |  |  | 23 | 25
40 | N=C1NC[C@H](CCCCN2C[C@@H](Cc3ccc4ccccc4c3)N(CCCCC3CCCCC3)C2=N)N1CCC12CC3CC(CC(C3)C1)C2 | 2.6 | 99 | 99 | 13 | 32
41 | CCCC[C@H]1CN(CCCC[C@H]2CNC(=N)N2CCc2cccc(C(F)(F)F)c2)C(=N)N1 | 3.5 |  |  | 3 | 11
42 | CC1CCCCC1CN1C(=N)NC[C@@H]1CCCCN1CCNC1=N (some centres not stated) | 5.4 |  |  | 3 | 14
43 | N=C1NCCN1CCCC[C@H]1CNC(=N)N1CCc1ccccc1 | 1.2 |  |  | 13 | 16
44 | CCCCCCCN1C(=N)N(CCCC[C@H]2CNC(=N)N2CCC23CC4CC(CC(C4)C2)C3)C[C@H]1Cc1ccc2ccccc2c1 | 0.6 | 0 | 0 | 57 | 36
